In US10023611B2, “Process for the preparation of bortezomib mannitol ester” (Cipla Limited, priority 2013, dated 2018):

Tests used:
Water solubility = format: physicochemical
Experimental: Bortezomib (a boronic acid compound), in its solid state as a pure API existed in the form of highly water insoluble boroxine, a cyclic boronic acid anhydride. When placed in water, the boroxine dissociated to form equilibrium between itself and the monomeric bortezomib resulting in an apparent water solubility of about 0.5-1 mg/ml which was not sufficient for formulation purposes. In order to deal with such issues, the innovator company in their patent WO2002059130 application has described a stable formulation containing mannitol ester of bortezomib. The application '9130 also relates to a process of preparing such formulation by first dissolving the bortezomib in warm (temperature around 45±2° C.) TBA (tertiary butyl alcohol), then adding water and mannitol (1% bulking agent), followed by freeze drying. […] So, the FDA approved drug Bortezomib is now available as a mannitol boronic ester which in its reconstituted form consists of the mannitol ester in equilibrium with its hydrolysis product, the monomeric boronic acid. The drug substance exists in its cyclic anhydride from as a trimeric boroxine, as described below in FIG. 1.

[1] = boroxine placed in water, equilibrium with monomeric bortezomib; cited from earlier work

| water solubility (in words) (Water solubility) | water solubility (soluble in volumes of water) (Water solubility) | Compound | apparent water solubility [1] [µg/mL] |
| --- | --- | --- | --- |
| poorly water soluble |  | CC(C)C[C@H](NC(=O)[C@H](Cc1ccccc1)NC(=O)c1cnccn1)B(O)O [Bortezomib, [(1R)-3-methyl-1-[[(2S)-1-oxo-3-phenyl-2-[(pyrazinylcarbonyl)amino]propyl]amino]butyl] boronic acid] | 500 to 1000 |
|  | around 5 volumes water | CC(C)C[C@H](NC(=O)[C@H](Cc1ccccc1)NC(=O)c1cnccn1)B1OC(C(O)CO)C(C(O)CO)O1 (stereo in doubt) [Compound B, bortezomib-mannitol ester] |  |
